Patent publication US20240050449A1, “Use of Acetyltanshinone IIA in Preparation of Medicament for Treating Lung Cancer and Medicament for Treating Lung Cancer” (UNIVERSITY OF MACAU, priority 2022, published 2024)

What was measured:
Type in all cases: cell-based
A549 cells [1] = assay: Colony formation (cloning experiment), A549 cells; settings: 0.125 μM, 10 days
Description: (§1) Cells were seeded at a density of 1×10^3 per well in 6-well plates and cultured for 24 h. The cells were treated with medicament or DMSO for 10 days, after which the cells were washed once with 1×PBS, fixed with 4% paraformaldehyde for 20 min, and stained with 0.1% crystal violet for 15 min. The stained cells in each well were imaged and the number of colonies in each well was quantified using ImageJ software.

H1975 cells [2] = assay: Spheroid formation experiment, H1975 cells
Excerpt: The density of H1975 was 500 cells per well and the density of H1650 was 1000 cells per well in an ultra-low adhesion round bottom 96 well plate (Corning, #7007).

p70S6K = biological target: T1, p70S6K (Homo sapiens, UniProt P23443); assay: Western blot, p70S6K protein levels in drug-resistant NSCLC cells; settings: 48 h
T1 construct: endogenous in cells; host or cells: A549, H358, H1975, H1650 for the Western blots
Description: (§2) Cells were washed once with PBS and frozen in RIPA lysis buffer containing protease and phosphatase inhibitors (Sigma-Aldrich) for 30 min. After sonication and centrifugation, the total protein concentration was determined by protein assay using Bio-Rad concentrated dye reagent (Bio-Rad). Equal amounts of protein ([…]) from each sample were separated by SDS-PAGE and electrotransferred to nitrocellulose membranes (GE Healthcare). Detection was performed on the membrane with a 1:1000 dilution of specific primary antibody followed by incubation with a 1:2000 dilution of the HRP conjugated secondary antibody. Finally, immunoreactivity is detected with a chemiluminescent substrate (Clarity Western ECL substrate; Bio-Rad). EGFR (#4267S), MET (#8198S), p-Akt (#9271L), akt (#9272S), p-mTOR (#5536S), mTOR (#2983S), p-p70S6K (#9234S), p70S6K (#2708S), p-S6RP (#4857S), S6RP (#2217S), p-4E-BP1 (#9455S) antibodies. 4E-BP1 (#9644S), p53 (#2527S), p21 waf1/Cip1 (#2947S), survivin (#2808S), cyclin B1 (#12231S), cyclin D3 (#2936S) and GAPDH (#2118S) were purchased from Cell Signaling Technology. Aurora A (#ab13824) and PLK1 (#ab189139) antibodies were from Abcam.

H1975 cells [3] = assay: Colony formation (cloning experiment), H1975 cells; settings: 0.125 μM, 10 days
Description: as §1

MET = assay: Western blot, MET protein levels in drug-resistant NSCLC cells; settings: 2 μM
Description: as §2, with “EGFR (#4267S), MET (#8198S), p-Akt (#9271L), akt (#9272S), p-mTOR (#5536S), mTOR (#2983S), p-p70S6K (#9234S), p70S6K (#2708S), p-S6RP (#4857S), S6RP (#2217S), p-4E-BP1 (#9455S) antibodies. 4E-BP1 (#9644S), p53 (#2527S), p21 waf1/Cip1 (#2947S), survivin (#2808S), cyclin B1 (#12231S), cyclin D3 (#2936S) and GAPDH (#2118S) were purchased from Cell Signaling Technology.” left out

[4] = tested on: p70S6K, AURKA, MET, S6RP and EGFR protein levels; assay: Western blot time course of protein reduction in A549 and H1650 cells; settings: 2 μM
Description: as §2
In FIGS. 7, A549 and H1650 cells were treated with ATA (2 μM) for 6, 12, 24, 36, and 48 h, and the protein levels of p70S6K, AURKA, MET, S6RP, and EGFR at each time point were determined by Western blot analysis as shown in (A), and the quantified protein levels are shown in (B). […] (D) is protein levels of p70S6K, p-p70S6K, S6RP, p-S6RP, p21, cyclin D3, AURKA, PLK1, cyclin B1, survivin, EGFR, and MET determined by Western blot analysis for A549 and H1650 cells treated with 10 nM p70S6K siRNA and siRNA negative control for 48 h. (E) is cell viability measured by MTT test for A549 and H1650 cells treated with 10 nM p70S6K siRNA and the negative control siRNA for 48 h. ****P<0.0001 was based on a one-way analysis of variance followed by Tukey's multiple comparison test. (F) It is protein levels of p21, cyclin D3, AURKA, PLK1, cyclin B1, survivin, EGFR, and MET determined by Western blot analysis for A549 and H1650 cells treated with LY294002 (2 μM), PF-4708671 (2 μM), rapamycin (2 μM) and ATA (2 μM) for 48 h. (G) is expression levels of EGFR, MET, p-p70S6K, p70S6K, p-S6RP, S6RP, p21, cyclin D3, AURKA, PLK1, cyclin B1 and survivin in fibroblast HDF, A549 and H1650 cells determined by Western blot analysis, respectively. Statistical data are expressed as the mean SD of three independent experiments.

A549 cells [5] = assay: Transwell cell migration assay
Description: Cell migration and invasion assays were performed in a transwell chamber (Corning, #3422) with a pore size of 8 μm. Cells were treated with different concentrations of ATA and Erlotinib for 48 h, then harvested and resuspended in a serum-free medium. Cells (1×10^4) were added to the upper side of the transwell chamber and fresh medium containing 10% FBS was added to the lower side. Cells were allowed to migrate from the upper side to the lower side of the chamber at 37° C. for 24 h. Membranes from the cell chamber were fixed with 4% paraformaldehyde for 20 min. The cells remaining on the upper side of the membrane were gently removed with a cotton swab and stained with 1% crystal violet for 20 min to stain the cells migrating to the other side of the transwell chamber. The membrane was then cut and fixed on a glass slide. The migrated cells on each slide were imaged with a Leica M165-FC microscope. For the transwell invasion assay, a Matrigel solution (Corning, #356230) was diluted to one-thirtieth with serum-free medium and applied to the upper side of the precoated chamber for 2 h, after the Matrigel had solidified, the cells were added to the upper side of the transwell chamber. The following procedure is identical to the migration assay. Migrated and invaded cells were quantified using ImageJ software.

EGFR = assay: Western blot, EGFR protein levels in drug-resistant NSCLC cells
Description: as §2, with “EGFR (#4267S), MET (#8198S), p-Akt (#9271L), akt (#9272S), p-mTOR (#5536S), mTOR (#2983S), p-p70S6K (#9234S), p70S6K (#2708S), p-S6RP (#4857S), S6RP (#2217S), p-4E-BP1 (#9455S) antibodies. 4E-BP1 (#9644S), p53 (#2527S), p21 waf1/Cip1 (#2947S), survivin (#2808S), cyclin B1 (#12231S), cyclin D3 (#2936S) and GAPDH (#2118S) were purchased from Cell Signaling Technology.” left out

T1 sequence (P23443 whole entry): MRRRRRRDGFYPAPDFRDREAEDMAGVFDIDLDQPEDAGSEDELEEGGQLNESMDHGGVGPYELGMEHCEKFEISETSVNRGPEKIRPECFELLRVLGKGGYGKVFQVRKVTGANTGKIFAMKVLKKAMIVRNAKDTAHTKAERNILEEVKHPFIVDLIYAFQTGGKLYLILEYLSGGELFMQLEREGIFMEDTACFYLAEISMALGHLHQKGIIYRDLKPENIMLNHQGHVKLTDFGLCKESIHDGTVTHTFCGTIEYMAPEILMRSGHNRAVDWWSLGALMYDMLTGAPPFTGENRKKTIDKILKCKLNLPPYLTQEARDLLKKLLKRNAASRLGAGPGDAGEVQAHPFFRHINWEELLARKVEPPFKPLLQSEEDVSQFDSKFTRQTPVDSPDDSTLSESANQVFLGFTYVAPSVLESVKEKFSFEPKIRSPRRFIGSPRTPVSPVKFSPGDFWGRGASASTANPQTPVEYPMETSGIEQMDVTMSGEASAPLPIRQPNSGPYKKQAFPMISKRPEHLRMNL

CC(=O)Oc1c(OC(C)=O)c2c(C)coc2c2ccc3c(c12)CCCC3(C)C [ATA, acetyltanshinone IIA]
reduction of colony-forming capacity (A549 cells [1]): 42%
spheroid growth / sphere size (H1975 cells [2]; 2 μM, 0 to 8 days): completely inhibited
spheroid formation (H1975 cells [2]; both 1 and 2 μM): strongly inhibited
levels of p70S6K protein and its phosphorylated forms (p70S6K; A549, H358, H1975, H1650 cells, 1 or 2 μM): greatly reduced
levels of p70S6K (p70S6K; A549 and H1650 cells, 2 μM): significantly decreased
inhibition of colony formation (H1975 cells [3]): almost completely inhibited
decrease of MET protein levels (MET; A549 cells, 72 or 96 h): ≤ 90%
reduction of MET protein levels (MET; all four cell lines, 48 h): 70-90%
time at which AURKA protein decreased [4]: 12 h
time at which EGFR protein decreased [4]: 48 to 72 h
time at which MET protein decreased [4]: 24 h
time at which S6RP protein decreased [4]: 36 h
time at which p70S6K protein decreased [4]: 6 h
effect on cell migration (A549 cells [5]; 0.5 μM): significant inhibitory effect
reduction of migration ability (A549 cells [5]; 1 μM): 80%
decrease of EGFR protein levels (EGFR; A549 cells, 2 μM, 72 or 96 h): ≤ 90%
reduction of EGFR protein levels (EGFR; H358, H1975 and H1650 cells, 1 or 2 μM, 48 h): 60-70%
